The NIST ThermoML archive (doi:10.1007/s10765-009-0593-3)

Assay: xn = mol fraction of the nth substance listed
Conditions: 101 kPa, Liquid; for speed of sound: Pulse-echo method

CCCOCC(C)OCC(C)O (stereo not given) [1-(1-methyl-2-propoxyethoxy)-2-propanol] + CCCCN(CCCC)CCCC
Conditions	mass density, 288.15 K [kg/m3]	mass density, 293.15 K [kg/m3]	speed of sound, 288.15 K [m/s]	speed of sound, 293.15 K [m/s]	speed of sound, 298.15 K [m/s]
x1 = 0.1122	794.307	790.425	1282.3	1263	1243.9
x1 = 0.1665	800.621	796.684	1282.3	1262.8	1243.7
x1 = 0.2084	805.602	801.628	1282.3	1262.9	1243.8
x1 = 0.2538	811.153	807.13	1282.4	1263.2	1244.1
x1 = 0.313	818.607	814.554	1282.5	1264	1244.9
x1 = 0.3558	824.155	820.06	1282.8	1264.8	1245.7
x1 = 0.4148	832.006	827.869	1283.3	1266.2	1247.2
x1 = 0.4472	836.41	832.261	1283.7	1267.1	1248.1
x1 = 0.5008	843.844	839.656	1284.5	1268.8	1249.8
x1 = 0.5451	850.136	845.938	1285.5	1270.3	1251.5
x1 = 0.6077	859.289	855.06	1287.2	1272.8	1254
x1 = 0.6566	866.709	862.46	1288.9	1274.9	1256.2
x1 = 0.7143	875.786	871.507	1291.3	1277.5	1258.8
x1 = 0.7514	881.851	877.544	1293.2	1279.3	1260.7
x1 = 0.8016	890.298	885.967	1296.1	1281.7	1263.2
x1 = 0.856	897.74	895.367	1299.9	1284.4	1266.1
x1 = 0.904	908.188	903.8	1303.7	1286.8	1268.7
x1 = 0.9553	917.078	912.677	1308.3	1289.5	1271.5
